Data from paper PMC8187479, “Sugar phosphate activation of the stress sensor eIF2B” (Nature Communications, 2021).
Entries after “also recorded” stand apart in the source; their conditions may differ.

Key:
[1] = target: T1, eIF2B decamer in WT HEK293T lysate (Homo sapiens, UniProt P49770+Q14232+Q9UI10); experiment: Sucrose gradient centrifugation, eIF2B complex assembly, WT HEK293T lysate; format: biochemical; details: 400 mM KCl, 5–20% sucrose gradient
T1 construct: endogenous in cells; host or cells: HEK293T (wild type) lysate
T1 sequence (Q14232 whole entry): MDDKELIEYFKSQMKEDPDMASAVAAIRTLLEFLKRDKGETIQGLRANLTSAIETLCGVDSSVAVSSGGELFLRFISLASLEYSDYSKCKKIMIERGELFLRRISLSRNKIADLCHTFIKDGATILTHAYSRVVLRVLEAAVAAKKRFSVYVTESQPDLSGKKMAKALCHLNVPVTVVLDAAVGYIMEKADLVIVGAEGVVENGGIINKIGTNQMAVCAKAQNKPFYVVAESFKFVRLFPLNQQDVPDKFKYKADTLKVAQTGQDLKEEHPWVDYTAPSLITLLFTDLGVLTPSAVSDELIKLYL
T1 sequence (P49770 whole entry): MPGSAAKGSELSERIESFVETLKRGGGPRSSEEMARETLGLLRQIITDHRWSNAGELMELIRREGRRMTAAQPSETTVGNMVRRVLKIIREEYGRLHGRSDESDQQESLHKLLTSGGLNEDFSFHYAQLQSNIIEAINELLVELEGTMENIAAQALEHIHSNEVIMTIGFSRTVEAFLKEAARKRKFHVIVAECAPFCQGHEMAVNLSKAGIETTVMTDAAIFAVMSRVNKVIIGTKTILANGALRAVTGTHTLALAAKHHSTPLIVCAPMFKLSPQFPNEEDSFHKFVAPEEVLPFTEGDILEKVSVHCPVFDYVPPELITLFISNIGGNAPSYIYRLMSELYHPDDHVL
T1 sequence (Q9UI10 whole entry): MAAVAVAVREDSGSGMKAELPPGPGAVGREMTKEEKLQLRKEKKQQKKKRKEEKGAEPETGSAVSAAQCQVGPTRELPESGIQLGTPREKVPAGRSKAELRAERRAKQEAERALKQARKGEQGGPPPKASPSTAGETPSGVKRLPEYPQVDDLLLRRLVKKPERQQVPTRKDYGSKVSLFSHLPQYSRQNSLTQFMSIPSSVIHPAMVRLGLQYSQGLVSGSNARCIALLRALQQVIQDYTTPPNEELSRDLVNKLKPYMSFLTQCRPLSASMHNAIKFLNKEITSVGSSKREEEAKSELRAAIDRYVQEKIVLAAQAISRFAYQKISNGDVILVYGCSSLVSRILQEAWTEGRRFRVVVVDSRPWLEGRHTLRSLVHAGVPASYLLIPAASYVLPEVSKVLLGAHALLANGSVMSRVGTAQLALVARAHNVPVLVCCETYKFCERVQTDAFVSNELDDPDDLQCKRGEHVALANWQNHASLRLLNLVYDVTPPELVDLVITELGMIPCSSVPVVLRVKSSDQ
T1 sequence (Q9NR50 whole entry partner): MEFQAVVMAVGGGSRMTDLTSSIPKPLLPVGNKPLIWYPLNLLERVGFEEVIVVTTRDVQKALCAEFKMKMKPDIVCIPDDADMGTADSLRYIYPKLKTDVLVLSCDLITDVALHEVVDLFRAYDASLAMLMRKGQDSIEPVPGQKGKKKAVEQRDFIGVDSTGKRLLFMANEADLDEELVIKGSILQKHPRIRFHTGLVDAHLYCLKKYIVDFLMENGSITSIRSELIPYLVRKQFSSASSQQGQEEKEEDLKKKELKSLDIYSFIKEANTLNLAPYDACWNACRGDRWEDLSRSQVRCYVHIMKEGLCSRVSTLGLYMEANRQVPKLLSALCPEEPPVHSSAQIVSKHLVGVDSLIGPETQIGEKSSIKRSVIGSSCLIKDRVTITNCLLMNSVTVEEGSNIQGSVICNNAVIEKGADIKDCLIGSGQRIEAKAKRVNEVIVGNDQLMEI
T1 sequence (Q13144 whole entry partner): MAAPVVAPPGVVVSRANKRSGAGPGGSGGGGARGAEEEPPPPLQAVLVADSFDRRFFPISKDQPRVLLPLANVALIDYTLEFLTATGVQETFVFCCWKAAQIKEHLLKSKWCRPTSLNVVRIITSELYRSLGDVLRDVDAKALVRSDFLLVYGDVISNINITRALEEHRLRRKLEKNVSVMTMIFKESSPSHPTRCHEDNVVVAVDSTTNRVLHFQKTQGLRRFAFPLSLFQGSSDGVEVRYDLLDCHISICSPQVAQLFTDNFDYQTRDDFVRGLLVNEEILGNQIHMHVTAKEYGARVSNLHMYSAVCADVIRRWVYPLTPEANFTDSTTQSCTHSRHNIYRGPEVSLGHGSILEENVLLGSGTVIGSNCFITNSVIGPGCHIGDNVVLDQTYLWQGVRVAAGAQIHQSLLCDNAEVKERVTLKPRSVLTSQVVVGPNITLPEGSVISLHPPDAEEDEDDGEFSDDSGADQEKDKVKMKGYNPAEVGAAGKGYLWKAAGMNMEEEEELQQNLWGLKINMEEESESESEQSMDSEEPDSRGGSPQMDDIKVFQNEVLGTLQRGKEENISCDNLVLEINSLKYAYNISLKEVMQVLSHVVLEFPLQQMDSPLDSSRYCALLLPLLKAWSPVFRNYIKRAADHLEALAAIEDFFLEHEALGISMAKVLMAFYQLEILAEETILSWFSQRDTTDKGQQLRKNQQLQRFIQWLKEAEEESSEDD
Experimental: (§1) WT or eIF2Bα mutant HEK293T cells were harvested and lysed in 50 mM HEPES, 400 mM KCl, 1 mM DTT, 4 mM Mg(OAc)2, pH 7.5 + 0.5% Triton-X-100 + EDTA-free protease inhibitor cocktail (Roche) on ice for 30 min. Lysates were cleared by centrifugation at 48,000 × g, 4 °C for 30 min. 100 μL of each cleared lysate was loaded onto a 5–20% sucrose gradient prepared in a 13 × 51 mm ultracentrifuge tube using a Gradient Station (Biocomp) and centrifuged in a SW55 Ti rotor at 152,000 × g, 4 °C for 12 h. After centrifugation, 24 × 200 μL fractions were manually collected from the top to bottom of each gradient. Each fraction was subjected to methanol/chloroform precipitation and SDS-PAGE followed by Western Blot with the indicated antibodies. Blots were imaged on a ChemiDoc MP (Bio-Rad), and band intensities were quantified using the instrument’s Image Lab software. Each value was then divided by total intensity obtained across all fractions to determine percent enrichment of each subunit in each fraction.

[2] = target: T2, eIF2Bα^N208Y (Homo sapiens, UniProt Q14232, N208Y); experiment: Isothermal titration calorimetry, eIF2Bα N208Y; format: binding; details: ITC
T2 construct: made in house; host or cells: E. coli BL21(DE3)
T2 sequence (Q14232 1-305 N208Y): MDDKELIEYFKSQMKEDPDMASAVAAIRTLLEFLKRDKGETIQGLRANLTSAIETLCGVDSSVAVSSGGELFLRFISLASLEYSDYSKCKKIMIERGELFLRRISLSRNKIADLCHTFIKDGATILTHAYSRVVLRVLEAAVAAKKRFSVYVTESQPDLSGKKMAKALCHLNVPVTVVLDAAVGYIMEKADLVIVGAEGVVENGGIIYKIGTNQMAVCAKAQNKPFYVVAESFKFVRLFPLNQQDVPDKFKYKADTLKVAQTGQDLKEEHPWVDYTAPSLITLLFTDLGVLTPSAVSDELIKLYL
Experimental: Interactions between recombinant protein and sugar phosphates were conducted with a MicroCal PEAQ-ITC (Malvern Panalytical Inc.). Experiments were performed in 25 mM HEPES, 150 mM NaCl, pH 7.5 at 20 °C. The sugar phosphate concentration in the syringe was 1 mM or 1.5 mM, and ~3.5 μL aliquots were injected into cells containing 300 μL eIF2Bα or eIF2B(βδγε) at a concentration of 20–30 μM. The final titration curves were fitted using MicroCal ITC data analysis software, assuming a single binding site per monomer.

[3] = target: T3, phospho-eIF2α binding to eIF2B (Homo sapiens, UniProt P49770+Q14232+Q9UI10); experiment: Phospho-eIF2α co-immunoprecipitation with FLAG-tagged eIF2B; details: lysate of thapsigargin-treated HEK293T eIF2Bβ-FLAG cells; ligand 2 h at 4 °C
T3 construct: endogenous in cells; host or cells: HEK293T with FLAG knock-in at the endogenous eIF2Bβ locus, treated with thapsigargin; lysate, anti-FLAG IP
T3 sequence (P49770 whole entry): as the sequence (P49770 whole entry) above
T3 sequence (Q9UI10 whole entry): as the sequence (Q9UI10 whole entry) above
T3 sequence (Q14232 whole entry): as the sequence (Q14232 whole entry) above
T3 sequence (Q9NR50 whole entry partner): as the sequence (Q9NR50 whole entry partner) above
T3 sequence (Q13144 whole entry partner): as the sequence (Q13144 whole entry partner) above
Experimental: HEK293T cells endogenously expressing eIF2Bβ with a C-terminal FLAG tag were maintained in DMEM High Glucose (Corning CellGro) supplemented with 10% FBS (Gibco) and antibiotic-antimycotic (Gibco). Upon reaching 90% confluency, cells were treated with either DMSO or 100 nM thapsigargin (Sigma) for 4 h. Cells were harvested and lysed in 25 mM HEPES, 150 mM KCl, 1% NP-40, 1 mM EDTA, pH 7.4 + Complete protease inhibitor cocktail (Roche) and PhosStop (Roche) on ice for 20 min. Lysates were cleared by centrifugation at 18,000 × g, 20 min, 4 °C, and transferred to Eppendorf tubes containing anti-FLAG M2 magnetic beads (Sigma). Mixtures were incubated overnight at 4 °C. To test the effect of ligands, these were added to the mixtures and incubated for an additional 2 h at 4 °C. Beads were washed three times with lysis buffer, eluted with 1× LDS buffer (Invitrogen), and subjected to SDS-PAGE followed by Western Blot with the indicated antibodies.

[4] = target: T4, eIF2B decamer in eIF2Bα^E198K HEK293T lysate (Homo sapiens, UniProt P49770+Q14232+Q9UI10, E198K); experiment: Sucrose gradient centrifugation, eIF2B complex assembly, eIF2Bα E198K HEK293T lysate; format: biochemical
T4 construct: endogenous in cells; host or cells: HEK293T, CRISPR knock-in eIF2Bα E198K (homozygous), lysate
T4 sequence (Q14232 whole entry E198K): as the sequence (Q14232 whole entry) above, with E198K counted along it
T4 sequence (P49770 whole entry): as the sequence (P49770 whole entry) above
T4 sequence (Q9UI10 whole entry): as the sequence (Q9UI10 whole entry) above
T4 sequence (Q9NR50 whole entry partner): as the sequence (Q9NR50 whole entry partner) above
T4 sequence (Q13144 whole entry partner): as the sequence (Q13144 whole entry partner) above
Experimental: as §1

[5] = target: eIF2Bα^V183F (Homo sapiens, UniProt Q14232, V183F); experiment: Isothermal titration calorimetry, eIF2Bα V183F; format: binding; details: ITC
Chain of eIF2Bα^V183F (Q14232 whole entry V183F): as the sequence (Q14232 whole entry) above, with V183F counted along it
Experimental: Interactions between recombinant protein and sugar phosphates were conducted with a MicroCal PEAQ-ITC (Malvern Panalytical Inc.). Experiments were performed in 25 mM HEPES, 150 mM NaCl, pH 7.5 at 20 °C. […] The final titration curves were fitted using MicroCal ITC data analysis software, assuming a single binding site per monomer.

## O=C(CO)[C@@H](O)[C@H](O)[C@H](O)COP(=O)(O)O [F6P, fructose-6-phosphate]
[1]
  eIF2B decamer formation (migration of eIF2Bα and eIF2Bδ): induced stabilization of the eIF2B decamer comparable to ISRIB
[2]
  interaction with eIF2Bα N208Y: does not interact; also recorded: abrogates binding
[3]
  co-immunoprecipitation of phospho-eIF2α with FLAG-tagged eIF2B: did not decrease the interaction
[4]
  eIF2B decamer formation: unresponsive
[5]
  Kd: 6.3 ± 0.7 µM
